Data as given in ChEMBL document CHEMBL4359853, “Antiproliferative activity of (R)-4'-methylklavuzon on hepatocellular carcinoma cells and EpCAM+/CD133+ cancer stem cells via SIRT1 and Exportin-1 (CRM1) inhibition” (Eur J Med Chem, 2019).
Active and inactive are the calls of the source. The rule behind the calls is not given here.

Assays:
[1] = system: Huh-7; experiment: Induction of apoptosis in human HuH7 cells expressing negative EpCAM/CD133 assessed as change in cell number at 0.1 to 10 uM measured after 48 hrs by 2D microscopic analysis; format: functional, cell-based
[2] = system: Huh-7; experiment: Induction of reactive oxygen species generation in human HuH7 cells at 1 uM measured after 24 hrs by DCFDA staining assay; format: functional, cell-based
[3] = system: Huh-7; experiment: Cell cycle arrest in human HuH7 cells assessed as increase in cell accumulation at G2 phase at 10 uM measured after 48 hrs by propidium iodide staining based flow cytometry analysis; format: functional
[4] = system: HepG2; experiment: Induction of 3D spheroid death in human HepG2 cells assessed as upregulation of p53 measured after 24 hrs by DAPI staining based fluorescence microscopy analysis assay; format: functional, cell-based
[5] = molecular target: Histone-lysine N-methyltransferase EZH2 (Homo sapiens) (UniProt Q15910); experiment: Activation of EZH2 in human HuH7 cells expressing positive EpCAM/CD133 assessed as upregulation of H3K27me3 expression measured after 4 hrs by Western blot analysis; format: cell-based
Sequence of Histone-lysine N-methyltransferase EZH2 (Homo sapiens) (Q15910 whole entry, looked up): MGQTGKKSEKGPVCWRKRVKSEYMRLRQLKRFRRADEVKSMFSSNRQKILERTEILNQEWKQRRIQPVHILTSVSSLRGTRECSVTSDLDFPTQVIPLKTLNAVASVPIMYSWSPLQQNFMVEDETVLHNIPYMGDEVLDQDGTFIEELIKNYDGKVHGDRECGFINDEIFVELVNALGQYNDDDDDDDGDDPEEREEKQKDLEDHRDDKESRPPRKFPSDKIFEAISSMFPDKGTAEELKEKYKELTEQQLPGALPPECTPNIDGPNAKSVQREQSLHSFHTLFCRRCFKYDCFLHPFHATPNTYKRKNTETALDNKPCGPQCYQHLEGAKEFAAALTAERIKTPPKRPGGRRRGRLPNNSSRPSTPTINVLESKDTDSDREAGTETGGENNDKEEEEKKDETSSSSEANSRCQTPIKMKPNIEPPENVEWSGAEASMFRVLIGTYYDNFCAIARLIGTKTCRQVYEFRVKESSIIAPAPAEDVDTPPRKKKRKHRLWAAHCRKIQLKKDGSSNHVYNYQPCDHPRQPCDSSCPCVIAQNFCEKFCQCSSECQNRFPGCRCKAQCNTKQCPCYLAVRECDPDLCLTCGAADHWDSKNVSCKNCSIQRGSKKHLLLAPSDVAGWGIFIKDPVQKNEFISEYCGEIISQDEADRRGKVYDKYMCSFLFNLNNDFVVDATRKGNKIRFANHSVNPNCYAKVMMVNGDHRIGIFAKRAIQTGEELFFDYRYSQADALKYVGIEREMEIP

[6] = system: Huh-7; experiment: Induction of apoptosis in human HuH7 positive EpCAM/CD133 cells measured after 48 hrs by Annexin V-FITC/propidium iodide staining based flow cytometry analysis; format: functional, cell-based
[7] = system: Huh-7; experiment: Cytotoxicity against human HuH7 cells expressing positive EpCAM/CD133 assessed as reduction in cell viability measured after 48 hrs by MTT assay; format: functional, cell-based; settings: Huh-7, 48 h
[8] = system: Huh-7; experiment: Upregulation of SIRT1 in human HuH7 cells assessed as fold change at 5 uM measured after 24 hrs by ELISA relative to control; format: functional
[9] = molecular target: Exportin-1 (Homo sapiens) (UniProt O14980); experiment: Inhibition of CRM1 in human HepG2 cells assessed as accumulation of RIOK2 in nucleus at 1 and 10 uM measured after 24 hrs by DAPI staining based confocal microscopy analysis; format: cell-based
Sequence of Exportin-1 (Homo sapiens) (O14980 whole entry): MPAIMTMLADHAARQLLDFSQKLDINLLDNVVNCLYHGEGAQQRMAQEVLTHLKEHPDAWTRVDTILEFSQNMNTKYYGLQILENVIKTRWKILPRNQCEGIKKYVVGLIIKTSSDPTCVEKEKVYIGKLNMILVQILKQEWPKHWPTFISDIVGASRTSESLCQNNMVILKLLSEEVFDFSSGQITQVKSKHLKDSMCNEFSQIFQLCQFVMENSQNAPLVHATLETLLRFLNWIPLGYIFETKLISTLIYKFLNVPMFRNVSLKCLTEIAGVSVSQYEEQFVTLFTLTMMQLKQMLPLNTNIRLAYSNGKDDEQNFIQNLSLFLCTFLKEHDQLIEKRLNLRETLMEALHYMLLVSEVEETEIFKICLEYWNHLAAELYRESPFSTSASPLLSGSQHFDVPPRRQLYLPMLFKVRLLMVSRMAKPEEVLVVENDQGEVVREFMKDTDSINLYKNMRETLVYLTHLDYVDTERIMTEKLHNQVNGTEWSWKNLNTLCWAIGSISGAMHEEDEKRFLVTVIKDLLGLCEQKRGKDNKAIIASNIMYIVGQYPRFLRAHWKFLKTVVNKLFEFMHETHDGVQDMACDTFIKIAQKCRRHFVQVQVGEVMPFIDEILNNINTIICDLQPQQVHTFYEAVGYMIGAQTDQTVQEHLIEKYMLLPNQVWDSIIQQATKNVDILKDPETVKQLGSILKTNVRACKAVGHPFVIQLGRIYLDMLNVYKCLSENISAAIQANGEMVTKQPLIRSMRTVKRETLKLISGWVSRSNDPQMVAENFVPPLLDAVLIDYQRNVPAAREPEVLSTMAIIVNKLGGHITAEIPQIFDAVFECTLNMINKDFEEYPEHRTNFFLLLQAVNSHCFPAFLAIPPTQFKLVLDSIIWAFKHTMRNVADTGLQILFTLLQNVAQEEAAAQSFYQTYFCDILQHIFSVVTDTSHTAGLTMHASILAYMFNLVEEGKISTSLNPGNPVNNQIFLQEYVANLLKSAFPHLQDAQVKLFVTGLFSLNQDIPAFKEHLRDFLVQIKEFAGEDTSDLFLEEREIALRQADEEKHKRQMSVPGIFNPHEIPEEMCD

[10] = system: Huh-7; experiment: Upregulation of SIRT1 in human HuH7 cells measured after 24 hrs by ELISA; format: functional, cell-based
[11] = system: HepG2; experiment: Induction of apoptosis in human 3D HepG2 spheroids at 0.1 uM measured after 24 hrs by propidium iodide staining based immunofluorescence microscopy analysis; format: functional, cell-based
[12] = species on record: Homo sapiens; experiment: Inhibition of Sirtuin/HDAC in human HUH7 cells assessed as decrease in enzymatic activity at 0.10 to 5 uM measured after 24 hrs relative to control; format: cell-based
[13] = system: Huh-7; experiment: Induction of apoptosis in human HuH7 cells assessed as change in cell numbers at 0.1 to 10 uM measured after 48 hrs by 2D microscopic analysis; format: functional, cell-based
[14] = species on record: Homo sapiens; experiment: Inhibition of Sirtuin/HDAC in human HUH7 negative EpCAM/CD133 cells assessed as decrease in enzymatic activity at 0.10 to 5 uM measured after 24 hrs relative to control
[15] = molecular target: Histone deacetylase 1 (Homo sapiens) (UniProt Q13547); experiment: Inhibition of human recombinant HDAC1 using FLUOR DE LYS SIRT1, deacetylase as substrate preincubated for 2 mins followed by substrate addition measured after 1 hr by fluorescence assay
Sequence of Histone deacetylase 1 (Homo sapiens) (Q13547 whole entry): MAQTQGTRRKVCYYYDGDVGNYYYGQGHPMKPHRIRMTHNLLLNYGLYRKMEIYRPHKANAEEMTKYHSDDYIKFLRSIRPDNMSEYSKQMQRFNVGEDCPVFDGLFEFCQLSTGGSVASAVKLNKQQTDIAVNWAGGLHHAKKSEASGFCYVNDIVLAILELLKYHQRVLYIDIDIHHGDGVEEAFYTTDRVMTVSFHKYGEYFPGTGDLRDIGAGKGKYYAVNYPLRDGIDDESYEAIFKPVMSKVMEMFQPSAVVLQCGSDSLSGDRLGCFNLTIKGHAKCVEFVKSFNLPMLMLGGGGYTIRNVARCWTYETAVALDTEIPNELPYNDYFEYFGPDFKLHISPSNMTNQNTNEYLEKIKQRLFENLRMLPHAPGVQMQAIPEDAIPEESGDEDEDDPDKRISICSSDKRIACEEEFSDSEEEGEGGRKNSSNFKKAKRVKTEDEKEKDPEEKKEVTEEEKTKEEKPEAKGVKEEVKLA

[16] = molecular target: Exportin-1 (Homo sapiens) (UniProt O14980); experiment: Inhibition of CRM1 in human HuH7 cells assessed as accumulation of RIOK2 in nucleus at 0.1 to 10 uM measured after 6 hrs by DAPI staining based confocal microscopy analysis; format: cell-based
[17] = system: HepG2; experiment: Cytotoxicity against human HepG2 cells assessed as reduction in cell viability measured after 48 hrs by MTT assay; format: functional, cell-based; settings: HepG2, 48 h
[18] = system: Huh-7; experiment: Upregulation of SIRT1 in human HuH7 cells assessed as fold change at 3 uM measured after 24 hrs by ELISA relative to control; format: functional
[19] = species on record: Homo sapiens; experiment: Inhibition of class 1/2 HDAC in human HuH7 negative EpCAM/CD133 cells nuclear extract at 0.1 to 81 uM after 24 hrs by fluorescence based assay
[20] = species on record: Homo sapiens; experiment: Inhibition of Sirtuin/HDAC in human HUH7 cells assessed as decrease in cell viability measured after 24 hrs; format: cell-based
[21] = system: Huh-7; experiment: Upregulation of p27 expression in human HuH7 cells at 1 to 3 uM measured after 24 to 72 hrs by SYBR-green based qPCR analysis; format: functional, cell-based
[22] = system: Huh-7; experiment: Upregulation of SIRT1 in human HuH7 cells assessed as fold change at 1 uM measured after 24 hrs by ELISA relative to control; format: functional
[23] = system: Huh-7; experiment: Cytotoxicity against human HuH7 cells expressing positive EpCAM/CD133 assessed as reduction in cell viability measured after 72 hrs by MTT assay; format: functional, cell-based; settings: Huh-7, 72 h
[24] = system: Huh-7; experiment: Cytotoxicity against human HuH7 cells negative EpCAM/CD133 assessed as reduction in cell viability measured after 24 hrs by MTT assay; format: functional, cell-based; settings: Huh-7, 24 h
[25] = molecular target: Exportin-1 (Homo sapiens) (UniProt O14980); experiment: Inhibition of CRM1 in human HuH7 cells assessed as accumulation of RIOK2 in nucleus at 1 and 10 uM measured after 24 hrs by DAPI staining based confocal microscopy analysis; format: cell-based
[26] = system: Huh-7; experiment: Cell cycle arrest in human HuH7 cells assessed as increase in accumulation at G1 phase at 1 to 1.25 uM measured after 48 hrs by propidium iodide staining based flow cytometry analysis; format: functional
[27] = molecular target: Exportin-1 (Homo sapiens) (UniProt O14980); experiment: Inhibition of CRM1 in human HuH7 cells assessed as upregulation of p53 by measuring accumulation in nucleus at 0.1 to 10 uM measured after 24 to 48 hrs by DAPI staining based immunofluorescence microscopy analysis; format: cell-based
[28] = system: Huh-7; experiment: Upregulation of p21 expression in human HuH7 cells expressing negative EpCAM/CD133 at 1 to 3 uM measured after 72 hrs by SYBR-green based qPCR analysis; format: functional, cell-based
[29] = species on record: Homo sapiens; experiment: Inhibition of class 1/2 HDAC in human HuH7 nuclear extract at 0.1 to 81 uM after 24 hrs by fluorescence based assay
[30] = species on record: Homo sapiens; experiment: Inhibition of Sirtuin/HDAC in human HuH7 cells expressing positive EpCAM/CD133 assessed as decrease in cell viability measured after 24 hrs; format: cell-based

Compound: Cc1ccc([C@H]2CC=CC(=O)O2)c2ccccc12
- Activity [1]: Active
- Activity [2]: Active
- Activity [3]: Active
- Activity [4]: Dose-dependent effect
- Activity [5]: Active
- Activity [6]: Dose-dependent effect
- IC50 [7]: 2.5 µM
- fold change (FC) [8]: 2
- inhibition [9]: Active
- Activity [10]: Dose-dependent effect
- Activity [11]: inactive
- inhibition [12]: 35 to 40%
- Activity [13]: Active
- Activity [14]: Active
- inhibition [15]: inactive
- inhibition [16]: Active
- IC50 [17]: 0.25 µM
- fold change (FC) [18]: 3.9
- Activity [19]: inactive
- inhibition [20]: Active
- Activity [21]: Active
- fold change (FC) [22]: 3.3
- IC50 [23]: 1.25 µM
- IC50 [24]: 10 µM
- inhibition [25]: Active
- Activity [26]: Active
- inhibition [27]: Active
- Activity [28]: Active
- inhibition [29]: inactive
- inhibition [30]: Active
